Here are results for one compound from ChEMBL document CHEMBL4507294, “Data for DCP probe MSD-CYP11B2” (2021).

Experiment [1] deals with T1, Beta-1 adrenergic receptor (Homo sapiens, UniProt P08588). Put plainly: GPCRScan assay: inhibition of Beta1. More on the design: radioligand conc. used [nm] 0.1 – 0.2, parental cells CHO Flp-In.
Target sequence in this assay (P08588 whole entry): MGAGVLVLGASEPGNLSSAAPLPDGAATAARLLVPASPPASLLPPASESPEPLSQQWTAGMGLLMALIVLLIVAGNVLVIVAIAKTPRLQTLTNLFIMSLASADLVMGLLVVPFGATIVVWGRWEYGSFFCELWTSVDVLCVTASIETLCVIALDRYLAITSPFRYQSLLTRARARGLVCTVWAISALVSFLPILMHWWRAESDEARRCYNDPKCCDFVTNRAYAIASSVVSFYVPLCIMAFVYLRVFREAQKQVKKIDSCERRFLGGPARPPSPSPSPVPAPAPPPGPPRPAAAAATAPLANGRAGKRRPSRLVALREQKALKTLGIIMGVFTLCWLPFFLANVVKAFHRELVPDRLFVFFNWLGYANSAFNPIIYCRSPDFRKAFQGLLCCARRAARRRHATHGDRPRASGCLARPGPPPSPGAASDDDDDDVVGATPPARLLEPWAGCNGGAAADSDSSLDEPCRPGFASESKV
The target of experiment [2] is Melanocortin receptor 4 (Homo sapiens) (UniProt P32245). In words: Inhibition of Melanocortin MC4 at 10 µM in the Eurofins-Panlabs radioligand binding assay (Eurofins_assay_251350). More on the design: ligand concentration 0.02 nM. The settings on record: Compound concentration 10.0 uM.
For experiment [3], the target named is Histamine H3 receptor (Homo sapiens) (UniProt Q9Y5N1). Conditions: Compound concentration 10.0 uM.
The target of experiment [4] is Adenosine receptor A2a (Homo sapiens) (UniProt P29274). The settings on record: Compound concentration 10.0 uM.
Experiment [5] has as its target T1, Beta-1 adrenergic receptor.
Target sequence in this assay (P08588 whole entry, looked up): as the sequence (P08588 whole entry) above

Sequence of Melanocortin receptor 4 (Homo sapiens) (P32245 whole entry): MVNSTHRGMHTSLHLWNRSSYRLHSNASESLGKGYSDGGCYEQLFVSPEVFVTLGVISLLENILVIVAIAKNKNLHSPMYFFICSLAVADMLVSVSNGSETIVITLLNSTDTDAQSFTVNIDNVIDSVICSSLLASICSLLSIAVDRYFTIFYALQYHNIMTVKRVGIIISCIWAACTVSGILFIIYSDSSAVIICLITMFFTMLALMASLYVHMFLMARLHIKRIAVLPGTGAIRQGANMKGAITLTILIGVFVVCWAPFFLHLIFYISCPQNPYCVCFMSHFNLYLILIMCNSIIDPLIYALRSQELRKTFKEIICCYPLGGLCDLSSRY
Sequence of Adenosine receptor A2a (Homo sapiens) (P29274 whole entry): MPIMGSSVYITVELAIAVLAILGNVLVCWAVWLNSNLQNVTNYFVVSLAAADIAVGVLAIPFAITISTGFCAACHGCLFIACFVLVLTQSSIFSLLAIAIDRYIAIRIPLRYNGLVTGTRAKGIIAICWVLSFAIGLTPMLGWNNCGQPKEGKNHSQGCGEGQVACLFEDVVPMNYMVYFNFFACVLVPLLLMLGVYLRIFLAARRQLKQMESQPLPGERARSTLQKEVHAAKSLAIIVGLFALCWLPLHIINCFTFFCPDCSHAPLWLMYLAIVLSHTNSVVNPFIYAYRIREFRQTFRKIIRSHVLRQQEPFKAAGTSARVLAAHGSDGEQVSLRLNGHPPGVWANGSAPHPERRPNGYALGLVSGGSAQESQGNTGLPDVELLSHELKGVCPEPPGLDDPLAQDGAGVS
Sequence of Histamine H3 receptor (Homo sapiens) (Q9Y5N1 whole entry): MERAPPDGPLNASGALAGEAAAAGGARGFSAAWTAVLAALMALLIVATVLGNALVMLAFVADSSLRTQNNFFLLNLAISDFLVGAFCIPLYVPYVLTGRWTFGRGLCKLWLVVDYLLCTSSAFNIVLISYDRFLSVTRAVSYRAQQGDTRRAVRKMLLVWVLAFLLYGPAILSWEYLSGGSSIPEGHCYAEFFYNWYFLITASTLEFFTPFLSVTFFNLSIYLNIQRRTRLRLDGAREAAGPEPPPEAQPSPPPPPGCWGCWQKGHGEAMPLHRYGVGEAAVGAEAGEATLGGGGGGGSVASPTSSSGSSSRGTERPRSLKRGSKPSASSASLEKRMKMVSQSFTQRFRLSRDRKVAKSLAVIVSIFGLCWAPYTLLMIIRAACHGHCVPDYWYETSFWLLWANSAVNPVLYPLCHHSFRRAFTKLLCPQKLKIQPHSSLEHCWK

A word on the Ki: it is a dissociation constant, usually derived from enzyme kinetics or from competition with a known ligand. As a reminder, the inhibition is the drop in the measured response relative to a control, in per cent. For `CC(C)(O)c1cncc(-c2nc3ccc(F)cc3n2C2CC2)c1` [MSD-CYP11B2], in experiment [1], the Ki amounted to 2370 nM. The inhibition in experiment [2] was -1%; in experiment [3], -4.55%; in experiment [4], -5%; in experiment [5] (Compound concentration 0.01 uM) it was 5%; in experiment [5] (Compound concentration 0.1 uM) it was -1%; in experiment [5] (Compound concentration 1.0 uM), 9%. Also, the inhibition in experiment [5] (Compound concentration 10.0 uM) is 51%.
